Several values for one entry are separate records, joined by “and”; a condition that tells them apart may be missing. Equal entries are not always repeated.
What was measured:
PSMA = target: T1, PSMA (Homo sapiens, UniProt Q04609); experiment: In vitro competition binding assay, LNCaP cells, [^18F]DCFPyL as radioligand
T1 construct: host or cells: LNCaP prostate cancer cells
Protocol: The LNCaP cells obtained from ATCC (via Cedarlane, Burlington, Canada) were cultured in RPMI 1640 medium supplemented with 10% FBS, penicillin (100 U/mL) and streptomycin (100 μg/mL) at 37 °C in a Panasonic Healthcare (Tokyo, Japan) MCO-19AIC humidified incubator containing 5% CO2. The cells were confirmed pathogen free by the IMPACT Rodent Pathogen Test (IDEXX BioAnalytics). Cells grown to 80-90% confluence were then washed with sterile PBS and collected after trypsinization. The cell concentration was counted in triplicate using a hemocytometer and a manual laboratory counter.
In vitro competition binding assays were conducted as previously reported using LNCaP prostate cancer cells and [^18F]DCFPyL as the radioligand [10]-[12],[14]. Briefly, LNCaP cells (400,000/well) were plated onto a 24-well poly-D-lysine coated plate for 48 h. Growth media was removed and replaced with HEPES buffered saline (50 mM HEPES, pH 7.5, 0.9% sodium chloride) and the cells were incubated for 1 h at 37 °C. [^18F]DCFPyL (0.1 nM) was added to each well (in triplicate) containing various concentrations (0.5 mM - 0.05 nM) of tested ligands. Non-specific binding was determined in the presence of 10 µM non-radiolabeled DCFPyL. The assay mixtures were further incubated for 1 h at 37 °C with gentle agitation. Then, the buffer and hot ligand were removed, and cells were washed twice with cold HEPES buffered saline. To harvest the cells, 400 µL of 0.25% trypsin solution was added to each well. Radioactivity was measured on an automatic gamma counter. Nonlinear regression analyses and Ki calculations were performed using the GraphPad Prism 7 software.

22Rv1 tumor model = test system: 22Rv1 tumor model; set-up: method as in PMID 34453203; settings: 1 h post-injection, 22Rv1, BALB/c nude; cited from earlier work
LNCaP tumor-bearing mice [1] = experiment: Ex vivo biodistribution in LNCaP tumor-bearing mice; set-up: species or system mouse; settings: 1 h post-injection
Method in brief: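 Male NSG or NRG mice bearing subcutaneous LNCaP tumours (5-8 mm) were injected with 2-4 MBq radioligand, with 0.5 mg nonradioactive DCFPyL co-injected for blocking. At set time points, blood and organs were collected, weighed and gamma-counted.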

LNCaP tumor-bearing mice [2] = experiment: PET/CT imaging in LNCaP tumor-bearing mice; type: in vivo, mouse; settings: 1 h post-injection
Protocol: Imaging, biodistribution and radioligand therapy experiments were performed following previously published procedures using male NOD-scid IL2Rg^null (NSG) or NOD.Cg-Rag1^tm1MomIl2rg^tm1Wjl/SzJ (NRG) mice [10]-[12],[14]-[15]. The experiments were conducted according to the guidelines established by the Canadian Council on Animal Care and approved by Animal Ethics Committee of the University of British Columbia. The mice were briefly sedated by inhalation of 2% isoflurane in oxygen, and implanted subcutaneously with 1×10^7 LNCaP cells behind the left shoulder. The mice were imaged or used in biodistribution studies when the tumor grew to 5-8 mm in diameter over a period of 4-5 weeks.
PET/CT imaging experiments were conducted using a Siemens (Knoxville, TN, USA) Inveon micro PET/CT scanner. Each tumor-bearing mouse was injected with ~6-8 MBq of ^68Ga-labeled tracer through a lateral caudal tail vein. After 50 min post-injection, a 10-min CT scan was conducted first for localization and attenuation correction after segmentation for reconstructing the PET images, followed by a 10-min static PET imaging acquisition.

[3] = blocked, co-injected with DCFPyL (0.5 mg)

T1 sequence (Q04609 whole entry): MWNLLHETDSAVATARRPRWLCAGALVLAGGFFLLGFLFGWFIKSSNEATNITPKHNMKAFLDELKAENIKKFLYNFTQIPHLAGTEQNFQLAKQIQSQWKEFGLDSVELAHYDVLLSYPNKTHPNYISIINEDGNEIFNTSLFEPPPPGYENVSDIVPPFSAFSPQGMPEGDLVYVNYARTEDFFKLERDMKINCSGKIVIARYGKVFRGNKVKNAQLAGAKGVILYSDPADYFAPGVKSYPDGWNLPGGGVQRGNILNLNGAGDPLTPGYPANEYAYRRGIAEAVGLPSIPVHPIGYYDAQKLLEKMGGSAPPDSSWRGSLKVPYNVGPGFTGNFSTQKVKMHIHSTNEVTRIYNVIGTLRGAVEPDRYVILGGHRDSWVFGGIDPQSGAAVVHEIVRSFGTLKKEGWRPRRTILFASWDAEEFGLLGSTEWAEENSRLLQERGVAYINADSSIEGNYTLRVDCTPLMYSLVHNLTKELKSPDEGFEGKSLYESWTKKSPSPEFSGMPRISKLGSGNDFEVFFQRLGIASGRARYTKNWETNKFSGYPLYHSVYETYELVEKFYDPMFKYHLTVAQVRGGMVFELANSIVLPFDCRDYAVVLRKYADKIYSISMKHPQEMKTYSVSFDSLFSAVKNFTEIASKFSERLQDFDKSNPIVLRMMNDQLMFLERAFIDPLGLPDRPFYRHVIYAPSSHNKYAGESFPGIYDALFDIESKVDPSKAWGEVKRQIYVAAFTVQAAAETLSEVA

In the case of `COc1ccc(CCCC(=O)NCC(=O)N[C@@H](CCCCNC(=O)CN2CCN(CC(=O)[O-])CCN(CC(=O)[O-])CCN(CC(=O)[O-])CC2)C(=O)NC[C@H]2CC[C@H](C(=O)N[C@@H](Cc3c4ccccc4cc4ccccc34)C(=O)NCCCC[C@H](NC(=O)N[C@@H](CSCC(=O)O)C(=O)O)C(=O)O)CC2)cc1.[Lu+3]` [Lu-HTK04048], the Ki (PSMA) is reported as 1.4 ± 1 nM.

Compound `O=C([O-])CN1CCN(CC(=O)[O-])CCN(CC(=O)NCC2CCC(C(=O)NC(Cc3c4ccccc4cc4ccccc34)C(=O)NCCCCC(NC(=O)NC(COCC(=O)O)C(=O)O)C(=O)O)CC2)CCN(CC(=O)[O-])CC1.[Ga+3]` (centres unmarked) [Ga-HTK03187] has a Ki (PSMA) of 10.6 ± 2 nM.

For `O=C([O-])CN1CCN(CC(=O)[O-])CCN(CC(=O)NCC2CCC(C(=O)NC(Cc3ccc4ccccc4c3)C(=O)NCCCCC(NC(=O)NC(CCC(=O)O)C(=O)O)C(=O)O)CC2)CCN(CC(=O)[O-])CC1.[68Ga+3]` (centres unmarked) [[^68Ga]Ga-PSMA-617], the Tumor uptake (22Rv1 tumor model) is listed as 3.41±1.31 %ID/g.

In the case of `O=C([O-])CN1CCN(CC(=O)[O-])CCN(CC(=O)NCC2CCC(C(=O)NC(Cc3c4ccccc4cc4ccccc34)C(=O)NCCCCC(NC(=O)NC(CSCC(=O)O)C(=O)O)C(=O)O)CC2)CCN(CC(=O)[O-])CC1.[68Ga+3]` (centres unmarked) [[^68Ga]Ga-HTK03177], the Adrenal glands uptake (LNCaP tumor-bearing mice [1]) is reported as 0.46 ± 0.17 %ID/g, the Blood uptake (LNCaP tumor-bearing mice [1]) is reported as 0.70 ± 0.06 %ID/g and the “Blood:Salivary gland uptake ratio” value (LNCaP tumor-bearing mice [1]) is reported as 3.14 ± 0.19. For the same compound, the Bone uptake (LNCaP tumor-bearing mice [1]) was 0.10 ± 0.03 %ID/g, the Brain uptake (LNCaP tumor-bearing mice [1]) was 0.02 ± 0.00 %ID/g and the Fat uptake (LNCaP tumor-bearing mice [1]) was 0.09 ± 0.04 %ID/g. For the same compound, the Heart uptake (LNCaP tumor-bearing mice [1]) was 0.21 ± 0.01 %ID/g, the Intestines uptake (LNCaP tumor-bearing mice [1]) was 0.21 ± 0.02 %ID/g and the Kidneys uptake (LNCaP tumor-bearing mice [1]) was 7.76±1.00 %ID/g and < 8.0 %ID/g. For the same compound, the Lacrimal glands uptake (LNCaP tumor-bearing mice [1]) was 0.12 ± 0.06 %ID/g, the Liver uptake (LNCaP tumor-bearing mice [1]) was 0.33 ± 0.20 %ID/g and the Lungs uptake (LNCaP tumor-bearing mice [1]) was 0.61 ± 0.08 %ID/g. The Muscle uptake (LNCaP tumor-bearing mice [1]) was 0.10 ± 0.01 %ID/g, the Pancreas uptake (LNCaP tumor-bearing mice [1]) was 0.14 ± 0.01 %ID/g and the Salivary glands uptake (LNCaP tumor-bearing mice [1]) was 0.22±0.02 %ID/g and < 0.25 %ID/g. For the same compound, the Spleen uptake (LNCaP tumor-bearing mice [1]) was 0.42 ± 0.15 %ID/g, the Stomach uptake (LNCaP tumor-bearing mice [1]) was 0.15 ± 0.09 %ID/g and the Testes uptake (LNCaP tumor-bearing mice [1]) was 0.25 ± 0.07 %ID/g. For the same compound, the Thyroid uptake (LNCaP tumor-bearing mice [1]) was 0.23 ± 0.01 %ID/g, the Tumor uptake (LNCaP tumor-bearing mice [1]) was 24.7±6.85 %ID/g and 21-25 %ID/g and the “Tumor:Blood uptake ratio” value (LNCaP tumor-bearing mice [1]) was 36.1±12.5. The “Tumor:Kidney uptake ratio” value (LNCaP tumor-bearing mice [1]) was 3.25±1.16, the “Tumor:Muscle uptake ratio” value (LNCaP tumor-bearing mice [1]) was 265±103 and the “Tumor:Salivary gland uptake ratio” value (LNCaP tumor-bearing mice [1]) was 112±33.1. For the same compound, the Adrenal glands uptake (LNCaP tumor-bearing mice [1]; [3]) was 0.61 ± 0.38 %ID/g, the Blood uptake (LNCaP tumor-bearing mice [1]; [3]) was 0.85 ± 0.15 %ID/g and the “Blood:Salivary gland uptake ratio” value (LNCaP tumor-bearing mice [1]; [3]) was 6.07 ± 2.53. It also gave a Bone uptake (LNCaP tumor-bearing mice [1]; [3]) of 0.24 ± 0.17 %ID/g, a Brain uptake (LNCaP tumor-bearing mice [1]; [3]) of 0.02 ± 0.00 %ID/g and a Fat uptake (LNCaP tumor-bearing mice [1]; [3]) of 0.20 ± 0.16 %ID/g. The Heart uptake (LNCaP tumor-bearing mice [1]; [3]) was 0.23 ± 0.04 %ID/g, the Intestines uptake (LNCaP tumor-bearing mice [1]; [3]) was 0.69 ± 0.76 %ID/g and the Kidneys uptake (LNCaP tumor-bearing mice [1]; [3]) was 1.73 ± 0.36 %ID/g. It also gave a Lacrimal glands uptake (LNCaP tumor-bearing mice [1]; [3]) of 0.15 ± 0.10 %ID/g, a Liver uptake (LNCaP tumor-bearing mice [1]; [3]) of 0.37 ± 0.22 %ID/g and a Lungs uptake (LNCaP tumor-bearing mice [1]; [3]) of 0.54 ± 0.06 %ID/g. It also gave a Muscle uptake (LNCaP tumor-bearing mice [1]; [3]) of 0.13 ± 0.05 %ID/g, a Pancreas uptake (LNCaP tumor-bearing mice [1]; [3]) of 0.54 ± 0.54 %ID/g and a Salivary glands uptake (LNCaP tumor-bearing mice [1]; [3]) of 0.15 ± 0.04 %ID/g. The Spleen uptake (LNCaP tumor-bearing mice [1]; [3]) was 0.25 ± 0.18 %ID/g, the Stomach uptake (LNCaP tumor-bearing mice [1]; [3]) was 0.12 ± 0.05 %ID/g and the Testes uptake (LNCaP tumor-bearing mice [1]; [3]) was 0.36 ± 0.14 %ID/g. The Thyroid uptake (LNCaP tumor-bearing mice [1]; [3]) was 0.21 ± 0.06 %ID/g, the Tumor uptake (LNCaP tumor-bearing mice [1]; [3]) was 0.74 ± 0.12 %ID/g and the “Tumor:Blood uptake ratio” value (LNCaP tumor-bearing mice [1]; [3]) was 0.89 ± 0.19. For the same compound, the “Tumor:Kidney uptake ratio” value (LNCaP tumor-bearing mice [1]; [3]) was 0.43 ± 0.05, the “Tumor:Muscle uptake ratio” value (LNCaP tumor-bearing mice [1]; [3]) was 5.50 ± 2.68 and the “Tumor:Salivary gland uptake ratio” value (LNCaP tumor-bearing mice [1]; [3]) was 5.05 ± 0.77. For the same compound, the “Reduction of average kidney uptake by co-injection of DCFPyL” value (LNCaP tumor-bearing mice [1]; DCFPyL 0.5 mg) was 78% and the “Kidney uptake in PET images” value (LNCaP tumor-bearing mice [2]) was “moderate”.
